Test results as given in PubChem BioAssay (NCI).
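Five compound concentrations were applied to cells in 96-well plates for 48 hours; endpoints were derived by simple linear interpolation of the resulting dose-response curve. GI50: concentration for 50% inhibition of growth. TGI: total growth inhibition.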

Assays:
Test in all cases: NCI anticancer screen, dose series, 48 h
[1] = tested on: HL-60(TB) leukemia
[2] = tested on: SF-295 CNS
[3] = tested on: K-562 leukemia
[4] = tested on: NCI-H23 lung
[5] = tested on: SW-620 colon
[6] = tested on: HCT-116 colon
[7] = tested on: 786-0 renal
[8] = tested on: NCI-H226 lung
[9] = tested on: SNB-19 CNS
[10] = tested on: SF-268 CNS
[11] = tested on: M14 melanoma
[12] = tested on: HOP-62 NSCLC
[13] = tested on: A549 NSCLC
[14] = tested on: MALME-3M melanoma
[15] = tested on: DMS 273 small cell lung
[16] = tested on: XF 498 CNS
[17] = tested on: ACHN renal
[18] = tested on: SN12C renal
[19] = tested on: NCI-H522 lung
[20] = tested on: SR leukemia
[21] = tested on: DMS 114 small cell lung
[22] = tested on: CCRF-CEM leukemia
[23] = tested on: OVCAR-3 ovarian
[24] = tested on: SF-539 CNS
[25] = tested on: UACC-257 melanoma
[26] = tested on: HT29 colon
[27] = tested on: OVCAR-8 ovarian
[28] = tested on: KM20L2 colon
[29] = tested on: SK-MEL-28 melanoma
[30] = tested on: LOX IMVI melanoma
[31] = tested on: RPMI-8226 leukemia
[32] = tested on: HCC-2998 colon
[33] = tested on: SK-MEL-2 melanoma
[34] = tested on: HOP-92 NSCLC
[35] = tested on: KM12 colon
[36] = tested on: LXFL 529 NSCLC
[37] = tested on: DLD-1 colon
[38] = tested on: SNB-78 CNS
[39] = tested on: NCI-H460 lung
[40] = tested on: M19-MEL melanoma
[41] = tested on: EKVX NSCLC
[42] = tested on: RXF 393 renal
[43] = tested on: COLO 205 colon
[44] = tested on: UO-31 renal
[45] = tested on: U251 CNS
[46] = tested on: TK-10 renal
[47] = tested on: SK-OV-3 ovarian
[48] = tested on: MOLT-4 leukemia
[49] = tested on: UACC-62 melanoma
[50] = tested on: IGROV1 ovarian
[51] = tested on: SNB-75 CNS
[52] = tested on: HCT-15 colon
[53] = tested on: OVCAR-5 ovarian
[54] = tested on: A498 renal
[55] = tested on: OVCAR-4 ovarian
[56] = tested on: HOP-18 NSCLC

Cc1[nH]c(=O)nc2c1C(NCCCN(C)C)c1cc(Cl)ccc1N2 (stereo not given)
TGI [1]: 34.4 µM | TGI [2]: 30.7 µM | TGI [3]: 26.9 µM | TGI [4]: 32.3 µM | TGI [5]: 28.6 µM | TGI [6]: 28.5 µM | TGI [7]: 27.7 µM | TGI [8]: 31 µM | TGI [9]: 31.2 µM | TGI [10]: 30.5 µM | TGI [11]: 21.3 µM | TGI [12]: 27.9 µM | TGI [13]: 28.1 µM | TGI [14]: 30.3 µM | TGI [15]: 25.3 µM | TGI [16]: 30.8 µM | TGI [17]: 30.2 µM | TGI [18]: 28.2 µM | TGI [19]: 28.5 µM | TGI [20]: 27.3 µM | TGI [21]: 28.2 µM | TGI [22]: 34.8 µM | TGI [23]: 33.6 µM | TGI [24]: 26.3 µM | TGI [25]: 26 µM | TGI [26]: 22.2 µM | TGI [27]: 28.7 µM | TGI [28]: 24.4 µM | TGI [29]: 27.2 µM | TGI [30]: 24.5 µM | TGI [31]: 44 µM | TGI [32]: 30.1 µM | TGI [33]: 31.5 µM | TGI [34]: 23.4 µM | TGI [35]: 30.3 µM | TGI [36]: 30.6 µM | TGI [37]: 35.3 µM | TGI [38]: 33.2 µM | TGI [39]: 29 µM | TGI [40]: 12.9 µM | TGI [41]: 30.1 µM | TGI [42]: 27 µM | TGI [43]: 26 µM | TGI [44]: 26.4 µM | TGI [45]: 29.3 µM | TGI [46]: 32.5 µM | TGI [47]: 32.1 µM | TGI [48]: 44.6 µM | TGI [49]: 26.2 µM | TGI [50]: 30.1 µM | TGI [51]: 26.2 µM

O=S(=O)([O-])c1ccc(N=Cc2ccccc2[O-])cc1.O=S(=O)([O-])c1ccc(N=Cc2ccccc2[O-])cc1.[O]=[U+2]=[O]
GI50 [52]: 31.3 µM | TGI [52]: > 100 µM | GI50 [2]: > 100 µM | TGI [2]: > 100 µM | GI50 [3]: > 100 µM | TGI [3]: > 100 µM | GI50 [4]: > 100 µM | TGI [4]: > 100 µM | GI50 [5]: > 100 µM | TGI [5]: > 100 µM | GI50 [53]: > 100 µM | TGI [53]: > 100 µM | GI50 [6]: 20 µM | TGI [6]: > 100 µM | GI50 [7]: 42.7 µM | TGI [7]: > 100 µM | GI50 [8]: > 100 µM | TGI [8]: > 100 µM | GI50 [9]: 66.4 µM | TGI [9]: > 100 µM | GI50 [10]: > 100 µM | TGI [10]: > 100 µM | GI50 [11]: > 100 µM | TGI [11]: > 100 µM | GI50 [12]: 81.7 µM | TGI [12]: > 100 µM | GI50 [13]: > 100 µM | TGI [13]: > 100 µM | GI50 [14]: > 100 µM | TGI [14]: > 100 µM | GI50 [15]: > 100 µM | TGI [15]: > 100 µM | GI50 [16]: > 100 µM | TGI [16]: > 100 µM | GI50 [17]: > 100 µM | TGI [17]: > 100 µM | GI50 [18]: > 100 µM | TGI [18]: > 100 µM | GI50 [19]: > 100 µM | TGI [19]: > 100 µM | GI50 [21]: 33.1 µM | TGI [21]: > 100 µM | GI50 [22]: > 100 µM | TGI [22]: > 100 µM | GI50 [23]: > 100 µM | TGI [23]: > 100 µM | GI50 [24]: 54.7 µM | TGI [24]: > 100 µM | GI50 [25]: > 100 µM | TGI [25]: > 100 µM | GI50 [26]: > 100 µM | TGI [26]: > 100 µM | GI50 [54]: > 100 µM | TGI [54]: > 100 µM | GI50 [27]: > 100 µM | TGI [27]: > 100 µM | GI50 [28]: > 100 µM | TGI [28]: > 100 µM | GI50 [55]: > 100 µM | TGI [55]: > 100 µM | GI50 [29]: > 100 µM | TGI [29]: > 100 µM | GI50 [30]: > 100 µM | TGI [30]: > 100 µM | GI50 [31]: > 100 µM | TGI [31]: > 100 µM | GI50 [56]: > 100 µM | TGI [56]: > 100 µM | GI50 [33]: > 100 µM | TGI [33]: > 100 µM | GI50 [34]: > 100 µM | TGI [34]: > 100 µM | GI50 [36]: > 100 µM | TGI [36]: > 100 µM | GI50 [37]: 67.9 µM | TGI [37]: > 100 µM | GI50 [38]: 80.4 µM | TGI [38]: > 100 µM | GI50 [39]: > 100 µM | TGI [39]: > 100 µM | GI50 [40]: > 100 µM | TGI [40]: > 100 µM | GI50 [41]: > 100 µM | TGI [41]: > 100 µM | GI50 [42]: 81.7 µM | TGI [42]: > 100 µM | GI50 [43]: 84.8 µM | TGI [43]: > 100 µM | GI50 [44]: > 100 µM | TGI [44]: > 100 µM | GI50 [45]: 94.7 µM | TGI [45]: > 100 µM | GI50 [46]: 30.7 µM | TGI [46]: 71.7 µM | GI50 [47]: > 100 µM | TGI [47]: > 100 µM | GI50 [48]: 64.1 µM | TGI [48]: > 100 µM | GI50 [49]: > 100 µM | TGI [49]: > 100 µM | GI50 [50]: 83.8 µM | TGI [50]: > 100 µM | GI50 [51]: > 100 µM | TGI [51]: > 100 µM
